The text below walks through data of patent publication US20220062218A1, “COMPOSITIONS AND METHODS FOR TREATING DIABETES” (ENZYCHEM LIFESCIENCES, priority 2019, published 2022).

Each structure is given as a SMILES string.

Holding throughout (format): cell-based, rat
For experiment [1], the system named is apoptosis-related proteins BCL-2, BAX, cytochrome c, caspase-3. Description: Expression of apoptosis-related proteins (BCL-2, BAX, cytochrome c, caspase-3) by western blotting in STZ-treated cells. The protocol: (§1) In addition, to perform a special protein detection test (Western Blotting), cells were lysed by RIPA buffer (LPS Solution, Daejeon, Korea) supplemented with protease and phosphatase inhibitors (Thermo Scientific, Waltham, Mass., USA). Proteins were separated on 12% sodium dodecyl sulfate-polyacrylamide gels and transferred to polyvinylidene difluoride membranes (EMD Millipore, Darmstadt, Germany). The membranes were blocked with 5% BSA for 1 h and incubated with primary antibodies to GLUT2 (bs-0351r, Bioss, Woburn, Mass., USA), RAC1 (03589, EMD Millipore), BAX (B51030, Bioworld Tech, St. Louis Park, Minn., USA), BCL-2 (B51031, Bioworld), Cytochrome c (#4272, Cell Signaling Technology, Danvers, Mass., USA), Caspase-3 (#9662, Cell Signaling Technology), and Na+-K+ ATPase (#3010S, Cell Signaling Technology). After three washes in PBST, membranes were incubated with HRP-conjugated secondary antibodies (Enzo Life Sciences, dilution 1:5,000) for 1 h at room temperature. Protein bands were detected using ECL reagent (Thermo Scientific) and then visualized on films. Expression of apoptosis-related proteins like Bcl-2, Bax, cytochrome c, caspase-3 was analyzed by western blotting, Bax/Bcl-2 ratio is represented by a bar graph (FIG. 2-C). Data are presented as mean ±SD (***P<0.001 vs. control, #P<0.05, ##P<0.005 vs. STZ).
(In western blotting, separated proteins are transferred to a membrane and probed.)

Another experiment deals with RAC1. Description: RAC1 expression in membrane fractions of STZ-treated cells by western blotting. The settings on record: time course. The protocol:
as §1, with “STZ). […]” for “STZ).”

Experiment [2] deals with clathrin- or caveolin-silenced INS-1 cells. Put plainly: Cell apoptosis and ROS generation in clathrin or caveolin siRNA-transfected cells treated with STZ. The protocol:
GLUT2-silenced cells were prepared to clarify the role of GLUT2 in STZ-treated cells. INS-1 cells were transfected with GLUT2 siRNA to determine whether GLUT2 expression is related to STZ-induced cell apoptosis and ROS generation.
Apoptosis of pancreatic beta cells, intracellular ROS generation and glucose intake was analyzed by flow cytometry using GLUT2 siRNA transfected cells (FIGS. 6-A to 6-C). The effect of PLAG on (D) cell apoptosis and (E) ROS generation in Endocytosis-related protein, clathrin or caveolin siRNA-transfected cells was analyzed (FIG. 6D and 6-E). Data are presented as mean ±SD. **P<0.005, ***P<0.001 vs. control, ##P<0.005, #IIIIP<0.001 vs. STZ group. N.S.: No significance. Transfection with siRNAs was performed using the HiPerFect reagent (Qiagen, Hilden, Germany), according to the manufacturer's protocol. Specific siRNAs directed against GLUT2, clathrin, and caveolin were obtained from Santa Cruz Biotechnology (Dallas, Tex., USA).

With `CCCCC/C=C\C/C=C\CCCCCCCC(=O)OC(COC(C)=O)COC(=O)CCCCCCCCCCCCCCC` (racemic) [PLAG, 1-palmitoyl-2-linoleoyl-3-acetyl-rac-glycerol], the “expression of anti-apoptotic protein BCL-2” value in experiment [1] (decreased by STZ) is “recovered by PLAG”. Further, in experiment [1] (increased by STZ), the “expression of apoptosis-related proteins BAX, cytochrome c, and caspase-3” value was “attenuated by PLAG addition”. For the same compound, the “expression of RAC1 in membrane fractions” value in the experiment on RAC1 is on record as “attenuated after a slight increase in 15 min”. In addition, the “apoptosis or ROS generation in clathrin- or caveolin-silenced cells” value in experiment [2] is reported as “did not influence apoptosis or ROS generation”.
